Earlier results as cited in patent publication EP0023178A1, “Process for the preparation of concentrated solutions of amygdaline in its natural form” (SOMET, Société dite, priority 1979, dated 1981).

Conditions: water

Structure (SMILES): N#CC(OC1OC(COC2OC(CO)C(O)C(O)C2O)C(O)C(O)C1O)c1ccccc1 (stereo not drawn) [amygdaline, D ou R mandélonitrile β-gentiobioside trihydraté]
- solubilité dans l'eau: 8-8,5%
